In US11584763B2, “Chromenopyridine derivatives as phosphatidylinositol phosphate kinase inhibitors” (HIBERCELL, INC., priority 2017, dated 2023) one finds IC50 data, which are given here for 16 compounds.

One experiment has as its target T1, PIP4K2B (Homo sapiens, UniProt P78356).
T1 construct: made in house; host or cells: E. coli
T1 sequence (P78356 1-416): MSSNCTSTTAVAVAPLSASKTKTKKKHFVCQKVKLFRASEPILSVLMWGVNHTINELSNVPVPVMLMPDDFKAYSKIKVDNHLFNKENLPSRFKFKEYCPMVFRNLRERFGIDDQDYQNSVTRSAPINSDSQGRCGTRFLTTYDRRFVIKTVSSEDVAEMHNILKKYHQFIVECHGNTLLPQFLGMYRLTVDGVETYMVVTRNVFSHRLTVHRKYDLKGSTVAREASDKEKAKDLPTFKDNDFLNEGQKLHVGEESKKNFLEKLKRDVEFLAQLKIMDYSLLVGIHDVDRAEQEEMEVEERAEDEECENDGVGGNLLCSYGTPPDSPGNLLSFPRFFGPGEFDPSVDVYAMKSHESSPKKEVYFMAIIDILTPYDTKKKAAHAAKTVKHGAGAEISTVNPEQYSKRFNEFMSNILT
In words: Trans-FI P kinase assay PIP4K2B (PIP4KtypeIIB inhibition assay). In kind it is biochemical. As to conditions: compounds listed under IC50 bin headings; 100 uM GTP; read-out: Trans-FI P kinase assays: PIP4K2B IC50. From the text:
GST tagged PIP4KtypeIIA and B enzymes were overexpressed in E. Coli and purified to >80% homogeneity. Phosphatidyl inositol-5-phosphate (PI5P, Cat. #850152, Avanti Polar Lipids Inc.) was used as the lipid substrate and phosphatidyl ethanolamine (DOPE 18:1, Cat. #850725, Avanti Polar Lipids Inc.) was used as the carrier lipid for assays. Ultrapure ATP and GTP was purchased from Bellbrooke Labs. ADP Glo reagents were obtained from Promega. Transcreener FI reagent was obtained from Bellbrooke labs.
GST-tagged PIP4KtypeIIB (3.4 uL, 2.77 mg/mL) was diluted to 5 mL using HNE buffer to yield 5× enzyme stock (25 nM)
Lipid Preparation: In a 10 mL pyrex glass vial, 1 ug of PI5P and 1 ug of DOPE were suspended in 2.5 mL of HEPES buffer mix and 2.5 mL of H:E buffer. The contents were mixed and sonicated for 3 min to yield a translucent lipid stock.
Compound Preparation: Compounds were stored as 5 mM stocks in neat DMSO as room temperature in glass vials. 5 mM stocks were diluted to 2 mM and then serially diluted (3×) in neat DMSO in 96 well polypropylene plates. From the serially diluted stocks, 3 uL was delivered into 250 uL of 25% DMSO (in water) to generate 5× compound stocks. Typically, the highest compound conc. was 24 uM.
The assay volume was kept at 25 uL. To each well of the reaction plate, 10 uL of lipid stock (1:1 ratio PI5P:DOPE) was delivered. This was followed by the addition of 5 uL of compound in 25% DMSO. Then, to each well, 5 uL of 25 nM (5×) typeIIB enzyme was delivered. The contents were mixed well and incubated for 1 h at 27 C. After 1 h, reaction was initiated by adding 5 uL of 500 uM GTP and the contents were mixed well with a multi-channel pipetteman. The final concentration of the reagents are as follows: 50 mM HEPES, pH 7.3, 10 mM MgCl2, 20 mM NaCl, 0.01% v/v triton-X100, 5% DMSO, 100 uM GTP, 80 uM (2 ug) PI5P, 2 ug DOPE, and 5 nM PIP4KIIB Typically, the highest conc. of compounds was 4.8 uM and the lowest conc. was 0.
After 2 h, the reaction was quenched by adding 25 uL of transcreener FI reagent. The contents were incubated at RT for 1 h and the Fluorescence (Ex: 584 Em: 623) was read using Molecular Devices Paradigm plate reader. […] The blanks were averaged and subtracted from all other wells. Using a calibration curve, RFU was converted to uM GDP (product). IC50 was calculated by plotting the residual activity (expressed as % No inhibitor control) vs. log [Inh. conc.]

Another experiment has as its target T2, PIP4K 2A (Homo sapiens, UniProt P48426).
T2 sequence (P48426 1-406): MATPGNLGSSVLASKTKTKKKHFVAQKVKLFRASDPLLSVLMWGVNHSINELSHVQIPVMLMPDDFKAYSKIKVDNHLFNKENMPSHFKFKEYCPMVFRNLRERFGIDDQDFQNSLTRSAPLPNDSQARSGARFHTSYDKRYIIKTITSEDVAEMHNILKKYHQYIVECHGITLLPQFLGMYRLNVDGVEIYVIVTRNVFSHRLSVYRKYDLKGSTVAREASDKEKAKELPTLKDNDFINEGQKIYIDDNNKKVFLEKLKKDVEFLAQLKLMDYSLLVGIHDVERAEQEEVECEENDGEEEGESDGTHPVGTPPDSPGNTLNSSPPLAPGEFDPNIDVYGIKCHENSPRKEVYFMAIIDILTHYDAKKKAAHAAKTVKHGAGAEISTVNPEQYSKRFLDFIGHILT
The experiment is described as follows: ADP-glo kinase assay PIP4K 2A. On the set-up: 4 nM PIP4K2A (full length protein, SignalChem); purchased SignalChem. The settings on record: compounds listed under IC50 bin headings. It is filed as biochemical. On the procedure:
Dilution series of the compounds were prepared in DMSO at 100 times the final assay concentration (n1=n0/3 in 10 points). The compounds were further diluted to three times the assay concentration in assay buffer (20 mM MOPS pH 7.2, 25 mM magnesium chloride, 0.005% Tween 20). 6 μL of the diluted compounds were added to a 384 well assay plate followed by 9 μL of a mix consisting of 4 nM PIP4K2A (full length protein, SignalChem) and 100 μM PI(5)P diC8 (Tebu-Bio). Enzyme and compounds were pre-incubated at room temperature for 15 minutes.
Then 3 μL of a solution containing 60 μM ATP (Promega) in assay buffer was added to the wells containing compound and enzyme and mixing was performed by pipetting several times. The reaction was incubated at room temperature for 1 h. Then 18 μL of ADP-Glo™ Reagent (Promega) was added to stop the kinase reaction and deplete the unconsumed ATP, mixing was performed by pipetting several times. The plate was incubated at room temperature for 40 minutes before addition of 36 μL of Kinase Detection Reagent (Promega) to convert ADP to ATP and introduce luciferase and luciferin to detect ATP. The reaction was incubated at room temperature for 40 minutes before the luminescence was measured in a in a Victor 3V 1420 multilabel counter (Perkin Elmer).
Percent inhibition of the compounds as compared to dimethyl sulfoxide treated control samples was calculated. Compound concentration versus percent inhibition were fitted to generate IC50 values.

SMILES strings stand for the structures.

For the compound `CC1Oc2cc(N3CCCC3=O)ccc2-c2cnc(Nc3cnc4cccc(S(C)(=O)=O)c4c3)cc21` (centres unmarked) [Example 92, 1-(5-methyl-3-((5-(methylsulfonyl)quinolin-3-yl)amino)-5H-chromeno[4,3-c]pyridin-8-yl)pyrrolidin-2-one], the IC50 was more than 1000 nM on PIP4K2B and 1 to 10 nM at PIP4K 2A.
The like results for `COC(=O)Nc1cncc(Nc2cc3c(cn2)-c2ccc(N4CCCC4=O)cc2OC3C)c1` (centres unmarked) [Example 98, methyl (5-((5-methyl-8-(2-oxopyrrolidin-1-yl)-5H-chromeno[4,3-c]pyridin-3-yl)amino)pyridin-3-yl)carbamate] were, in that order, 10 to 100 nM and 1 to 10 nM.
The like results for `CNC(=O)Nc1cncc(Nc2cc3c(cn2)-c2ccc(N4CCCC4=O)cc2OC3C)c1` (centres unmarked) [Example 99, 1-methyl-3-(5-((5-methyl-8-(2-oxopyrrolidin-1-yl)-5H-chromeno[4,3-c]pyridin-3-yl)amino)pyridin-3-yl)urea] were, in that order, 10 to 100 nM and 1 to 10 nM.
On the same counts, the results for `CC1Oc2cc(N3CCCC3=O)ccc2-c2cnc(Nc3cncc(NC(=O)CO)c3)cc21` (centres unmarked) [Example 101, 2-hydroxy-N-(5-((5-methyl-8-(2-oxopyrrolidin-1-yl)-5H-chromeno[4,3-c]pyridin-3-yl)amino)pyridin-3-yl)acetamide] are 10 to 100 nM and 1 to 10 nM.
As to `CC1Oc2cc(N3CCCC3=O)ccc2-c2cnc(Nc3cncc(NC(=O)Nc4ccccn4)c3)cc21` (centres unmarked) [Example 102, 1-(5-((5-methyl-8-(2-oxopyrrolidin-1-yl)-5H-chromeno[4,3-c]pyridin-3-yl)amino)pyridin-3-yl)-3-(pyridin-2-yl)urea], the IC50 on PIP4K2B was in the range of 10 to 100 nM; on PIP4K 2A, 1 to 10 nM.
On the same counts, the results for `CC1Oc2cc(N3CCCC3=O)ccc2-c2cnc(Nc3cncc(NC(=O)C4CCNC4=O)c3)cc21` (centres unmarked) [Example 104, N-(5-((5-methyl-8-(2-oxopyrrolidin-1-yl)-5H-chromeno[4,3-c]pyridin-3-yl)amino)pyridin-3-yl)-2-oxopyrrolidine-3-carboxamide] are 10 to 100 nM and 1 to 10 nM.
The like results for `CC1Oc2cc(N3CCCC3=O)ccc2-c2cnc(Nc3cncc(NC(=O)CCC(=O)O)c3)cc21` (centres unmarked) [Example 105, 4-((5-((5-methyl-8-(2-oxopyrrolidin-1-yl)-5H-chromeno[4,3-c]pyridin-3-yl)amino)pyridin-3-yl)amino)-4-oxobutanoic acid] were, in that order, 10 to 100 nM and 1 to 10 nM.
With `CC1Oc2cc(N3CCCC3=O)ccc2-c2cnc(Nc3cncc(NC(=O)Cc4ccccc4)c3)cc21` (centres unmarked) [Example 107, N-(5-((5-methyl-8-(2-oxopyrrolidin-1-yl)-5H-chromeno[4,3-c]pyridin-3-yl)amino)pyridin-3-yl)-2-phenylacetamide], the IC50 lay within 10 to 100 nM at PIP4K2B and 1 to 10 nM at PIP4K 2A.
On the same counts, the results for `CC1Oc2cc(N3CCCC3=O)ccc2-c2cnc(Nc3cncc(NC(=O)c4ccc5cc[nH]c5c4)c3)cc21` (centres unmarked) [Example 108, N-(5-((5-methyl-8-(2-oxopyrrolidin-1-yl)-5H-chromeno[4,3-c]pyridin-3-yl)amino)pyridin-3-yl)-1H-indole-6-carboxamide] are 10 to 100 nM and 1 to 10 nM.
On the same counts, the results for `CC1Oc2cc(N3CCCC3=O)ccc2-c2cnc(Nc3cncc(NC(=O)c4ccc5ncoc5c4)c3)cc21` (centres unmarked) [Example 109, N-(5-((5-methyl-8-(2-oxopyrrolidin-1-yl)-5H-chromeno[4,3-c]pyridin-3-yl)amino)pyridin-3-yl)benzo[d]oxazole-6-carboxamide] are 1 to 10 nM and 1 to 10 nM.
For `CC1Oc2cc(N3CCCC3=O)ccc2-c2cnc(Nc3cncc(NC(=O)c4ccc(NC=O)c(O)c4)c3)cc21` (centres unmarked) [Example 109A, 4-formamido-3-hydroxy-N-(5-((5-methyl-8-(2-oxopyrrolidin-1-yl)-5H-chromeno[4,3-c]pyridin-3-yl)amino)pyridin-3-yl)benzamide], the IC50 was in the range of 10 to 100 nM on PIP4K2B and 1 to 10 nM on PIP4K 2A.
On the same counts, the results for `CC1Oc2cc(N3CCCC3=O)ccc2-c2cnc(Nc3cncc(NC(=O)CCc4ccccc4)c3)cc21` (centres unmarked) [Example 110, N-(5-((5-methyl-8-(2-oxopyrrolidin-1-yl)-5H-chromeno[4,3-c]pyridin-3-yl)amino)pyridin-3-yl)-3-phenylpropanamide] are 10 to 100 nM and 1 to 10 nM.
In the case of `CC1Oc2cc(N3CCCC3=O)ccc2-c2cnc(Nc3cncc(NC(=O)[C@H]4C[C@@H]4c4ccccc4)c3)cc21` (stereo partly drawn) [Example 111, (1S,2S)—N-(5-((5-methyl-8-(2-oxopyrrolidin-1-yl)-5H-chromeno[4,3-c]pyridin-3-yl)amino)pyridin-3-yl)-2-phenylcyclopropane-1-carboxamide], the IC50 was 10 to 100 nM at PIP4K2B and 1 to 10 nM at PIP4K 2A.
The like results for `CC1Oc2cc(N3CCCC3=O)ccc2-c2cnc(Nc3cncc(NC(=O)c4ccccn4)c3)cc21` (centres unmarked) [Example 112, N-(5-((5-methyl-8-(2-oxopyrrolidin-1-yl)-5H-chromeno[4,3-c]pyridin-3-yl)amino)pyridin-3-yl)picolinamide] were, in that order, 10 to 100 nM and 1 to 10 nM.
`CC1Oc2cc(N3CCCC3=O)ccc2-c2cnc(Nc3cncc(NC(=O)c4cccnc4)c3)cc21` (centres unmarked) [Example 113, N-(5-((5-methyl-8-(2-oxopyrrolidin-1-yl)-5H-chromeno[4,3-c]pyridin-3-yl)amino)pyridin-3-yl)nicotinamide]: the IC50 was 10 to 100 nM on PIP4K2B and 1 to 10 nM against PIP4K 2A.
The like results for `CC1Oc2cc(N3CCCC3=O)ccc2-c2cnc(Nc3cncc(NC(=O)c4ccncc4)c3)cc21` (centres unmarked) [Example 114, N-(5-((5-methyl-8-(2-oxopyrrolidin-1-yl)-5H-chromeno[4,3-c]pyridin-3-yl)amino)pyridin-3-yl)isonicotinamide] were, in that order, 10 to 100 nM and 1 to 10 nM.
